Assay results as given in patent publication US8192962B2, “Processes for detecting toxic substances” (Daikin Industries, Ltd., priority 2001, dated 2012).

Test system: Unknown protein yeast genes
Experiment: DNA chip mRNA expression in yeast, unknown protein yeast genes (Table 1)
Type: cell-based, Saccharomyces cerevisiae S288C
Method: Yeast (Saccharomyces cerevisiae S288C (α SUC2mal mel gap2 CUP1)) were incubated at 25° C. on YPD medium (yeast extract 1%, polypepton 2%, glucose 2%). One of toxic chemical substances was added to the cells at logarithmic growth phase, and the cells were further incubated for two hours. Cells were cultured without any chemical substance in the same condition, and were used as control. Concentrations of the chemical substances were defined to inhibit the growth of the yeast but not lead to death.
After completion of the incubation, the culture was centrifuged to collect the cells. To the cells, sodium acetate buffer (50 mM sodium acetate, 10 mM EDTA, 1% SDS) was added, and the mixture was shaken at 65° C. for five minutes, followed by returning to room temperature, and obtaining the supernatant, of which the procedures were repeated two times. To the supernatant, ½ amount of a solution of phenol/chloroform was added, and the mixture was centrifuged to give a supernatant, which was added with an equal amount of chloroform, and the mixture was centrifuged to give a supernatant. To the supernatant, an equal amount of isopropanol containing 0.3 M sodium acetate was added, and the mixture was allowed to stand at room temperature for 30 minutes, after which the mixture was centrifuged to give a sediment of the whole RNAs. Seventy % ethanol was added to the sediment, and the mixture was again centrifuged to give a sediment, which was then dried and dissolved in water. mRNA was isolated from the whole RNAs as followings. In view of the fact that a poly A chain is attached to the 3′ terminus of mRNA, a polynucleotide having a poly T structure which was immobilized on the surface of latex beads was used to trap the mRNA, and then the mRNA was washed and eluted with spine column (Oligotex-dT30<Super>mRNA Purification Kit, Takara). Reverse transcription of the mRNA was conducted with a reverse transcriptase (Super Script II Reverse Transcriptase; catalogue No. 18064-014, GibcoBRL) using fluorescence-labeled nucleotides to give cDNAs that were introduced with Cy3-dUTP or Cy5-dUTP during the reverse transcription.
The labeled cDNAs were dissolved in TE buffer (10mM Tris-HCl/1 mM EDTA, pH8.0), and the solution was dropped on the DNA chip containing the whole genes of yeast (DNA Chip Research Inc. Japan) so that the cDNAs were hybridized on the DNA chip at 65° C. for over 12 hours. The fluoresces intensity of the DNA chip was read with a scanner, and the ratio relative to the fluorescence intensity resulting from the absence of chemical substance was estimated as the following, which is shown in Tables 1 to 9: […]

With C[S+](C)[O-] [(15), dimethylsulfoxide] the “The level of expressed mRNA in the presence of chemical substance/The level of expressed mRNA in the absence of chemical substance” value (yeast gene YAL018C) was 6.9, the “The level of expressed mRNA in the presence of chemical substance/The level of expressed mRNA in the absence of chemical substance” value (yeast gene YAL034C) was 1.4 and the “The level of expressed mRNA in the presence of chemical substance/The level of expressed mRNA in the absence of chemical substance” value (yeast gene YAR031W) was 0.9. For the same compound, the “The level of expressed mRNA in the presence of chemical substance/The level of expressed mRNA in the absence of chemical substance” value (yeast gene YAR064W) was 1.9, the “The level of expressed mRNA in the presence of chemical substance/The level of expressed mRNA in the absence of chemical substance” value (yeast gene YBL048W) was 4.1 and the “The level of expressed mRNA in the presence of chemical substance/The level of expressed mRNA in the absence of chemical substance” value (yeast gene YBL107C) was 1.4. The “The level of expressed mRNA in the presence of chemical substance/The level of expressed mRNA in the absence of chemical substance” value (yeast gene YBR012C) was 1.1, the “The level of expressed mRNA in the presence of chemical substance/The level of expressed mRNA in the absence of chemical substance” value (yeast gene YBR062C) was 0.7 and the “The level of expressed mRNA in the presence of chemical substance/The level of expressed mRNA in the absence of chemical substance” value (yeast gene YBR101C, incubated two hours with substance) was 0.5. The “The level of expressed mRNA in the presence of chemical substance/The level of expressed mRNA in the absence of chemical substance” value (yeast gene YBR287W) was 1.3, the “The level of expressed mRNA in the presence of chemical substance/The level of expressed mRNA in the absence of chemical substance” value (yeast gene YCR013C) was 1.6 and the “The level of expressed mRNA in the presence of chemical substance/The level of expressed mRNA in the absence of chemical substance” value (yeast gene YDL027C) was 1.4. For the same compound, the “The level of expressed mRNA in the presence of chemical substance/The level of expressed mRNA in the absence of chemical substance” value (yeast gene YDL110C) was 1.3, the “The level of expressed mRNA in the presence of chemical substance/The level of expressed mRNA in the absence of chemical substance” value (yeast gene YDL169C) was 2.2 and the “The level of expressed mRNA in the presence of chemical substance/The level of expressed mRNA in the absence of chemical substance” value (yeast gene YDL222C, incubated two hours with chemical substance) was 7.1. For the same compound, the “The level of expressed mRNA in the presence of chemical substance/The level of expressed mRNA in the absence of chemical substance” value (yeast gene YDR070C) was 2.1, the “The level of expressed mRNA in the presence of chemical substance/The level of expressed mRNA in the absence of chemical substance” value (yeast gene YDR078C, incubated two hours with substance) was 0.5 and the “The level of expressed mRNA in the presence of chemical substance/The level of expressed mRNA in the absence of chemical substance” value (yeast gene YDR128W) was 1.4. The “The level of expressed mRNA in the presence of chemical substance/The level of expressed mRNA in the absence of chemical substance” value (yeast gene YDR202C, incubated two hours with substance) was 0.5, the “The level of expressed mRNA in the presence of chemical substance/The level of expressed mRNA in the absence of chemical substance” value (yeast gene YDR210W) was 1.0 and the “The level of expressed mRNA in the presence of chemical substance/The level of expressed mRNA in the absence of chemical substance” value (yeast gene YDR214W) was 1.1. For the same compound, the “The level of expressed mRNA in the presence of chemical substance/The level of expressed mRNA in the absence of chemical substance” value (yeast gene YDR250C) was 0.7, the “The level of expressed mRNA in the presence of chemical substance/The level of expressed mRNA in the absence of chemical substance” value (yeast gene YDR278C) was 0.7 and the “The level of expressed mRNA in the presence of chemical substance/The level of expressed mRNA in the absence of chemical substance” value (yeast gene YDR435C) was 0.6. The “The level of expressed mRNA in the presence of chemical substance/The level of expressed mRNA in the absence of chemical substance” value (yeast gene YDR476C) was 2.2, the “The level of expressed mRNA in the presence of chemical substance/The level of expressed mRNA in the absence of chemical substance” value (yeast gene YER037W) was 0.8 and the “The level of expressed mRNA in the presence of chemical substance/The level of expressed mRNA in the absence of chemical substance” value (yeast gene YER106W, incubated two hours with chemical substance) was 6.8. For the same compound, the “The level of expressed mRNA in the presence of chemical substance/The level of expressed mRNA in the absence of chemical substance” value (yeast gene YER124C, incubated two hours with substance) was 0.5, the “The level of expressed mRNA in the presence of chemical substance/The level of expressed mRNA in the absence of chemical substance” value (yeast gene YER182W, incubated two hours with substance) was 0.5 and the “The level of expressed mRNA in the presence of chemical substance/The level of expressed mRNA in the absence of chemical substance” value (yeast gene YFL024C) was 0.9. For the same compound, the “The level of expressed mRNA in the presence of chemical substance/The level of expressed mRNA in the absence of chemical substance” value (yeast gene YGL121C) was 1.6, the “The level of expressed mRNA in the presence of chemical substance/The level of expressed mRNA in the absence of chemical substance” value (yeast gene YGR035C) was 0.3 and the “The level of expressed mRNA in the presence of chemical substance/The level of expressed mRNA in the absence of chemical substance” value (yeast gene YGR110W) was 1.2. For the same compound, the “The level of expressed mRNA in the presence of chemical substance/The level of expressed mRNA in the absence of chemical substance” value (yeast gene YGR139W) was 2.3, the “The level of expressed mRNA in the presence of chemical substance/The level of expressed mRNA in the absence of chemical substance” value (yeast gene YGR211W, incubated two hours with substance) was 0.5 and the “The level of expressed mRNA in the presence of chemical substance/The level of expressed mRNA in the absence of chemical substance” value (yeast gene YGR284C) was 3.9. The “The level of expressed mRNA in the presence of chemical substance/The level of expressed mRNA in the absence of chemical substance” value (yeast gene YHR029C) was 1.0, the “The level of expressed mRNA in the presence of chemical substance/The level of expressed mRNA in the absence of chemical substance” value (yeast gene YHR054C) was 0.8 and the “The level of expressed mRNA in the presence of chemical substance/The level of expressed mRNA in the absence of chemical substance” value (yeast gene YHR095W) was 0.8. For the same compound, the “The level of expressed mRNA in the presence of chemical substance/The level of expressed mRNA in the absence of chemical substance” value (yeast gene YHR209W) was 5.0, the “The level of expressed mRNA in the presence of chemical substance/The level of expressed mRNA in the absence of chemical substance” value (yeast gene YIL117C, incubated two hours with chemical substance) was 7.5 and the “The level of expressed mRNA in the presence of chemical substance/The level of expressed mRNA in the absence of chemical substance” value (yeast gene YJL037W) was 1.6. For the same compound, the “The level of expressed mRNA in the presence of chemical substance/The level of expressed mRNA in the absence of chemical substance” value (yeast gene YJL149W, incubated two hours with chemical substance) was 9.0, the “The level of expressed mRNA in the presence of chemical substance/The level of expressed mRNA in the absence of chemical substance” value (yeast gene YJR030C) was 0.8 and the “The level of expressed mRNA in the presence of chemical substance/The level of expressed mRNA in the absence of chemical substance” value (yeast gene YJR085C, incubated two hours with substance) was 0.5. For the same compound, the “The level of expressed mRNA in the presence of chemical substance/The level of expressed mRNA in the absence of chemical substance” value (yeast gene YKL071W) was 1.7, the “The level of expressed mRNA in the presence of chemical substance/The level of expressed mRNA in the absence of chemical substance” value (yeast gene YKL107W) was 1.7 and the “The level of expressed mRNA in the presence of chemical substance/The level of expressed mRNA in the absence of chemical substance” value (yeast gene YKR040C) was 1.1. For the same compound, the “The level of expressed mRNA in the presence of chemical substance/The level of expressed mRNA in the absence of chemical substance” value (yeast gene YKR075C) was 0.4 and the “The level of expressed mRNA in the presence of chemical substance/The level of expressed mRNA in the absence of chemical substance” value (yeast gene YLL056C) was 1.5.
